The values below come from patent publication US20130337564A1, “Treatment of Pluripotent Cells” (Janssen Biotech, Inc., priority 2012, published 2013).

Holding throughout (type): cell-based
For experiment [1], the system named is Sox17 expression in human embryonic stem cell line H9. Put plainly: Dose titration secondary assay: Sox17 intensity, H9. As for the experimental part:
(§1) It was important to confirm the activity of hits identified from primary screening and further analyze the range of activity by dose titration. New samples of a selective subset of primary screening hits were obtained as dry powders, solubilized to make fresh stock reagents, and diluted into secondary confirmation assays to evaluate effects on human embryonic stem cells.
(§2) Culture of two human embryonic stem cells (H1 and H9) was conducted as described in Example 1. Colonies of cells were maintained in an undifferentiated, pluripotent state on Matrigel™ ([…]) coated polystyrene plastic, using a 1:30 dilution of Matrigel™ in DMEM:F12 to coat the surface. Cells were split by enzymatic passage every four days on average. Passage was performed by exposing cell monolayers to a solution of collagenase (1 mg/ml; Sigma-Aldrich) for 10 to 60 minutes at 37° C. followed by gentle scraping with a pipette tip to recover cell clusters. Clusters were allowed to sediment by gravity, then washed to remove residual collagenase. Cell clusters were split at a 1:3 ratio for maintenance culture or a 1:1 ratio for subsequent assay. The human embryonic stem cell lines were maintained at less than passage 50 and routinely evaluated for normal karyotypic phenotype and absence of mycoplasma contamination.
(§3) Cell clusters of the H1 or H9 human embryonic stem cell lines used in the assay were evenly resuspended in culture medium and plated onto Matrigel™-coated 96-well Packard VIEWPLATES (PerkinElmer) in volumes of 100 μl/well. MEF conditioned medium supplemented with 8 ng/ml bFGF was used for initial plating and expansion. Daily feeding was conducted by aspirating spent culture medium from each well and replacing with an equal volume of fresh medium. Cultures were allowed to expand one to three days after plating prior to initiating assay. Plates were maintained at 37° C., 5% CO2 in a humidified box for the duration of assay.
(§4) A subset of hits resulting from primary screening was used for follow-up study and subsequent secondary assays. Twenty compounds available as dry powders were solubilized as 10 mM stocks in DMSO and stored dessicated at […] until use Immediately prior to assay, compound stocks were diluted 1:1000 to make 10 μM test compound in DMEM:F12 base medium (Invitrogen) supplemented with 0.5% FCS (HyClone) and 100 ng/ml Activin A (R&D Biosystems). This was further diluted two-fold in series to make a seven point dilution curve for each compound, also in DMEM:F12 base medium with 0.5% FCS and 100 ng/ml Activin A.
(§5) Assay was initiated by aspirating culture medium from cell monolayers in each well followed by three washes in PBS to remove residual growth factors and serum. Test volumes of 100 μl per well were added back containing medium with 0.5% FCS and different concentrations of inhibitor compounds with 100 ng/ml Activin A, without Wnt3a. Positive control wells contained the same base medium with 0.5% FCS and with 20 ng/ml Wnt3a (R&D Biosystems) in the absence of test compound. Negative control wells contained the same base medium with 0.5% FCS, in the absence of Activin A, Wnt3a, or test compound. Assay wells were aspirated and fed again with identical concentrations of test compound or control solutions on day 2 of assay. On days 3 and 4, all assay wells were aspirated and fed with DMEM:F12 supplemented with 2% FCS and 100 ng/ml Activin A in the absence of both test compound or Wnt3a. Parallel negative control wells were maintained on days 3 and 4 in DMEM:F12 base medium with 2% FCS.
(§6) At the end of culture, cells in 96-well plates were washed twice with PBS then fixed with 4% paraformaldehyde at room temperature for 20 minutes, washed three times more with PBS, and then permeabilized with 0.5% Triton X-100 for 20 minutes at room temperature. After fixing and permeabilizing, cells were washed again three times with PBS and then blocked with 4% chicken serum (Invitrogen) in PBS for 30 minutes at room temperature. […]

The test system of experiment [2] is human embryonic stem cell line H9. Put plainly: Dose titration secondary assay: cell number, H9. As for the experimental part:
as §1, §2, §3, §4, §5, §6

Experiment [3] has as its system Sox17 expression in human embryonic stem cell line H1. Put plainly: Dose titration secondary assay: Sox17 intensity, H1. Here is the method: as §1, §2, §3, §4, §5, §6
Experiment [4] has as its system human embryonic stem cell line H1. As to the kind of experiment: Dose titration secondary assay: cell number, H1. Particulars: positive control (Wnt3a/Activin A) normalized to 1.000; for activity at 0.156 µM / activity at 0.313 µM / activity at 0.625 µM / activity at 1.25 µM / activity at 2.5 µM / activity at 5 µM / activity at 10 µM: Homo sapiens, Embryonic stem cell. As for the experimental part:
as §1, §2, §3, §4, §5, §6

In the case of `CCN1CCOCCOCCn2cc(c3ccccc32)C2=C(C(=O)NC2=O)c2cn(c3ccccc23)CC1` [Compound 103, 14-Ethyl-6,7,9,10,13,14,15,16-octahydro-12H,23H-5,26:17,22-di(metheno)dibenzo[k,q]pyrrolo[3,4-n][1,4,7,10,19]dioxatriacyclohenicosine-23,25(24H)-dione], the “Sox17 Intensity” value is reported as 0.364 in experiment [1] (0.156 μM compound); 0.577 in experiment [1] (0.313 μM compound); 0.985 in experiment [1] (0.625 μM compound); 0.943 in experiment [1] (1.25 μM compound); 0.559 in experiment [1] (2.5 μM compound); 0.019 in experiment [1] (5 μM compound). The “Sox17 Intensity” value in experiment [1] (10 μM compound) is 0.001; in experiment [3] (0.156 μM compound), 0.986; in experiment [3] (0.313 μM compound), 0.934; in experiment [3] (0.625 μM compound) it was 0.824; in experiment [3] (1.25 μM compound), 0.792; in experiment [3] (2.5 μM compound) it was 0.200. The “Sox17 Intensity” value in experiment [3] (5 μM compound) is listed as 0.017; in experiment [3] (10 μM compound), 0.001. The Cell number in experiment [2] (0.156 μM compound) was found to be 0.458; in experiment [2] (0.313 μM compound), 0.686; in experiment [2] (0.625 μM compound), 0.927; in experiment [2] (1.25 μM compound), 1.011; in experiment [2] (2.5 μM compound), 0.681; in experiment [2] (5 μM compound), 0.023. The Cell number worked out at 0.001 in experiment [2] (10 μM compound); 1.027 in experiment [4] (Conc 0.156 μM); 1.028 in experiment [4] (Conc 0.313 μM); 0.921 in experiment [4] (Conc 0.625 μM); 0.897 in experiment [4] (Conc 1.25 μM); 0.566 in experiment [4] (Conc 2.5 μM). In addition, the values for the Cell number in experiment [4] (Conc 5 μM) and in experiment [4] (Conc 10 μM) were 0.034 and 0.001, respectively.

As to `CN1CCOCCOCCN(C)CCn2cc(c3ccccc32)C2=C(C(=O)NC2=O)c2cn(c3ccccc23)CC1` [Compound 112, 12,21-Dimethyl-11,12,13,14,16,17,20,21,22,23-decahydro-1H,10H,19H-9,4:24,29-di(metheno)dibenzo[k,q]pyrrolo[3,4-n][1,4,7,10,19,22]dioxatetraazacyclotetracosine-1,3(2H)-dione], the “Sox17 Intensity” value in experiment [1] (0.156 μM compound) is recorded as 0.186; in experiment [1] (0.313 μM compound), 0.342; in experiment [1] (0.625 μM compound) it was 0.563; in experiment [1] (1.25 μM compound) it was 0.936; in experiment [1] (2.5 μM compound), 1.146; in experiment [1] (5 μM compound) it was 1.127. Further, the “Sox17 Intensity” value in experiment [1] (10 μM compound) was found to be 0.759; in experiment [3] (0.156 μM compound), 0.922; in experiment [3] (0.313 μM compound) it was 1.006; in experiment [3] (0.625 μM compound), 1.136; in experiment [3] (1.25 μM compound), 1.159; in experiment [3] (2.5 μM compound), 0.928. The “Sox17 Intensity” value is listed as 0.728 in experiment [3] (5 μM compound) and 0.701 in experiment [3] (10 μM compound). Besides, the Cell number in experiment [2] (0.156 μM compound) was determined as 0.276; in experiment [2] (0.313 μM compound), 0.437; in experiment [2] (0.625 μM compound), 0.686; in experiment [2] (1.25 μM compound), 1.039; in experiment [2] (2.5 μM compound), 1.197; in experiment [2] (5 μM compound), 1.281. Further, the Cell number amounted to 1.022 in experiment [2] (10 μM compound); 0.912 in experiment [4] (Conc 0.156 μM); 0.959 in experiment [4] (Conc 0.313 μM); 1.111 in experiment [4] (Conc 0.625 μM); 1.200 in experiment [4] (Conc 1.25 μM); 1.005 in experiment [4] (Conc 2.5 μM). Also, the Cell number is on record as 0.908 in experiment [4] (Conc 5 μM) and 0.996 in experiment [4] (Conc 10 μM).

Consider `CN(C)c1ccc(-n2cc(C3=C(c4nn(CCO)c5ccccc45)C(=O)NC3=O)c3cc(Cl)ccc32)cn1` [Compound 148, 3-{5-Chloro-1-[6-(dimethylamino)pyridin-3-yl]-1H-indol-3-yl}-4-[1-(2-hydroxyethyl)-1H-indazol-3-yl]-1H-pyrrole-2,5-dione], for which the activity at 0.156 µM in experiment [4] (Conc 0.156 μM) was determined as 121%. The activity at 0.313 µM in experiment [4] (Conc 0.313 μM) came to 121%. The activity at 0.625 µM in experiment [4] (Conc 0.625 μM) stood at 136%. In experiment [4] (Conc 1.25 μM), the activity at 1.25 µM was 165%. Moreover, in experiment [4] (Conc 2.5 μM), the activity at 2.5 µM is 172%. In addition, in experiment [4] (Conc 5 μM), the activity at 5 µM amounted to 101%. The activity at 10 µM in experiment [4] (Conc 10 μM) was 0.2%.

As for `O=C1NC(=O)C(c2cn(CCOCCOCCO)c3ccccc23)=C1c1cn(CCO)c2ccccc12` [Compound 110, 3-[1-(2-Hydroxyethyl)-1H-indol-3-yl]-4-{1-[2-({2-[(2-hydroxyethyl)oxy]ethyl}oxy)ethyl]-1H-indol-3-yl}-1H-pyrrole-2,5-dione], in experiment [4] (Conc 0.156 μM), the activity at 0.156 µM was found to be 97.4%. Also, the activity at 0.313 µM in experiment [4] (Conc 0.313 μM) worked out at 116%. In addition, in experiment [4] (Conc 0.625 μM), the activity at 0.625 µM came to 119%. Besides, the activity at 1.25 µM in experiment [4] (Conc 1.25 μM) amounted to 111%. In experiment [4] (Conc 2.5 μM), the activity at 2.5 µM worked out at 117%. For the same molecule, the activity at 5 µM in experiment [4] (Conc 5 μM) was determined as 53%. Besides, in experiment [4] (Conc 10 μM), the activity at 10 µM came out at 12.9%.

Turning to `O=C1NC(=O)C(c2cn(-c3cccnc3)c3ccccc23)=C1c1cn(CCO)c2ccccc12` [Compound 206, 3-[1-(2-Hydroxyethyl)-1H-indol-3-yl]-4-(1-pyridin-3-yl-1H-indol-3-yl)-1H-pyrrole-2,5-dione], the activity at 0.156 µM in experiment [4] (Conc 0.156 μM) amounted to 80.4%. Also, the activity at 0.313 µM in experiment [4] (Conc 0.313 μM) was found to be 93.1%. Further, the activity at 0.625 µM in experiment [4] (Conc 0.625 μM) amounted to 109%. In addition, in experiment [4] (Conc 1.25 μM), the activity at 1.25 µM worked out at 112%. In addition, in experiment [4] (Conc 2.5 μM), the activity at 2.5 µM was determined as 102%. Besides, in experiment [4] (Conc 5 μM), the activity at 5 µM was 116%. Further, in experiment [4] (Conc 10 μM), the activity at 10 µM amounted to 3.9%.
